Assay: xn = mol fraction of the nth substance listed
Conditions: 101 kPa, Liquid; for viscosity: Capillary tube (Ostwald / Ubbelohde) method; for mass density: Vibrating tube method

CCCCCCCC[n+]1ccn(C)c1.[Cl-] [1-methyl-3-octylimidazolium chloride] + O
Conditions | mass density, 298.15 K [kg/m3] | mass density, 313.15 K [kg/m3] | mass density, 328.15 K [kg/m3] | mass density, 343.15 K [kg/m3] | viscosity, 298.15 K [mPa·s] | viscosity, 313.15 K [mPa·s] | viscosity, 328.15 K [mPa·s] | viscosity, 343.15 K [mPa·s]
x2 = 0 | 1008.82 | 1000.2 | 991.67 | 983.24 | 20883 | 4066 | 1091 | 387.2
x2 = 0.1484 | 1009.61 | 1000.98 | 992.42 | 983.87 | 5570 | 1470 | 484.6 | 200.1
x2 = 0.203 | 1009.99 | 1001.35 | 992.77 | 984.21 | 3815 | 1097 | 393.5 | 165.4
x2 = 0.4076 | 1011.83 | 1003.2 | 994.4 | 985.6 | 1325 | 387.9 | 170.8 | 84.75
x2 = 0.5334 | 1012.7 | 1003.76 | 994.81 | 985.96 | 921.1 | 337.9 | 147.7 | 74.31
x2 = 0.6807 | 1012.37 | 1003.16 | 993.98 | 984.8 | 433 | 175.5 | 83.26 | 44.23
x2 = 0.8185 | 1009.16 | 1000.09 | 990.76 | 981.11 | 193.4 | 83.87 | 42.22 | 24.22
x2 = 0.8803 | 1006.63 | 997.6 | 988.16 | 978.39 | 80.77 | 38.02 | 20.45 | 12.17
x2 = 0.9307 | 1003.69 | 995.12 | 985.89 | 976.15 | 22.48 | 13.27 | 8.18 | 5.33
x2 = 0.9635 | 1001.1 | 993.58 | 985.06 | 975.71 | 5.71 | 4.25 | 3.3 | 2.65
